{"source": "paper PMC8585037", "about": "(International Journal of Molecular Sciences, 2021)", "key": {"C57BL/6J mice": {"test_system": "C57BL/6J mice", "experiment": "Locomotor activity studies in mice", "format": "in vivo, mouse", "settings": "for dose giving maximal locomotor effect (Emax): i.p."}, "DAT": {"target": "T1, DAT (Rattus norvegicus, UniProt P23977)", "T1 construct": "Synaptosomes from rat cerebrum were isolated as described by Bogen et al; from tissue; host or cells: rat cerebrum synaptosomes", "T1 sequence (P23977 whole entry)": "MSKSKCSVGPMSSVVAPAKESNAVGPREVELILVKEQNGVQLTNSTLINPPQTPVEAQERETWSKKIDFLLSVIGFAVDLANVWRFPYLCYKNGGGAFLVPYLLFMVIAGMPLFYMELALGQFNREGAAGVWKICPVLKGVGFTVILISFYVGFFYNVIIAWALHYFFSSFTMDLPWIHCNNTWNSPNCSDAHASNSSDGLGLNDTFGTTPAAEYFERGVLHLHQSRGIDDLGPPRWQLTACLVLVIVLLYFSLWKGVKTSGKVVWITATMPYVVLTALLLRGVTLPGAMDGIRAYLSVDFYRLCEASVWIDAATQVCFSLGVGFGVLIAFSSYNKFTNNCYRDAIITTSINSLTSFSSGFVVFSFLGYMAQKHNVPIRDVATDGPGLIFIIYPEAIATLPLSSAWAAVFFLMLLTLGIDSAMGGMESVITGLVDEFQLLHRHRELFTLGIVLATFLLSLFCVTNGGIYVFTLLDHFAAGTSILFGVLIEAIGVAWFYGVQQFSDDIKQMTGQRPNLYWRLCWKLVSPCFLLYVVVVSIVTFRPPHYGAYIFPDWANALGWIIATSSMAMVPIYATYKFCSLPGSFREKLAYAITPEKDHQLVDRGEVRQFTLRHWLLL", "experiment": "Synaptosomal uptake of [3H]DA in rat brain synaptosomes", "format": "biochemical"}, "NET": {"target": "T2, NET (Rattus norvegicus, UniProt Q63380)", "T2 construct": "Synaptosomes from rat cerebrum were isolated as described by Bogen et al; from tissue; host or cells: rat cerebrum synaptosomes", "T2 sequence (Q63380 1-617)": "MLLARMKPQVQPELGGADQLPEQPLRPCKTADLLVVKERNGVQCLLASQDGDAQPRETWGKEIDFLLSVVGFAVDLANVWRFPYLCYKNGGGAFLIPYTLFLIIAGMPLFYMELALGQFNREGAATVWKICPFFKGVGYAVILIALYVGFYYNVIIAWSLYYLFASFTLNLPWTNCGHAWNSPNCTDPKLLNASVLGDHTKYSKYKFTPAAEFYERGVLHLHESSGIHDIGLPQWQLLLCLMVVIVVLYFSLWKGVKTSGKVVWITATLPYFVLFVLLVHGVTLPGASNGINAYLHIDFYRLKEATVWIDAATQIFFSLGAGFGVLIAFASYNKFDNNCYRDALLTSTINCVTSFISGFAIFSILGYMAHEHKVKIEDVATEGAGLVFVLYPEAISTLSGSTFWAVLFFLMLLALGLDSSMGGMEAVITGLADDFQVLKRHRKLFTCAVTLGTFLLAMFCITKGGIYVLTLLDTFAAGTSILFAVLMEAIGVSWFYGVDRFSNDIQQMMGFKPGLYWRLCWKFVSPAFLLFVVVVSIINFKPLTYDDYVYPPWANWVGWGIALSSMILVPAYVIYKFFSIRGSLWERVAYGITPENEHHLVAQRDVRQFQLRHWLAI", "experiment": "Synaptosomal uptake of [3H]NE in rat brain synaptosomes", "format": "biochemical"}, "SERT": {"target": "T3, SERT (Rattus norvegicus, UniProt P31652)", "T3 construct": "Synaptosomes from rat cerebrum were isolated as described by Bogen et al; from tissue; host or cells: rat cerebrum synaptosomes", "T3 sequence (P31652 whole entry)": "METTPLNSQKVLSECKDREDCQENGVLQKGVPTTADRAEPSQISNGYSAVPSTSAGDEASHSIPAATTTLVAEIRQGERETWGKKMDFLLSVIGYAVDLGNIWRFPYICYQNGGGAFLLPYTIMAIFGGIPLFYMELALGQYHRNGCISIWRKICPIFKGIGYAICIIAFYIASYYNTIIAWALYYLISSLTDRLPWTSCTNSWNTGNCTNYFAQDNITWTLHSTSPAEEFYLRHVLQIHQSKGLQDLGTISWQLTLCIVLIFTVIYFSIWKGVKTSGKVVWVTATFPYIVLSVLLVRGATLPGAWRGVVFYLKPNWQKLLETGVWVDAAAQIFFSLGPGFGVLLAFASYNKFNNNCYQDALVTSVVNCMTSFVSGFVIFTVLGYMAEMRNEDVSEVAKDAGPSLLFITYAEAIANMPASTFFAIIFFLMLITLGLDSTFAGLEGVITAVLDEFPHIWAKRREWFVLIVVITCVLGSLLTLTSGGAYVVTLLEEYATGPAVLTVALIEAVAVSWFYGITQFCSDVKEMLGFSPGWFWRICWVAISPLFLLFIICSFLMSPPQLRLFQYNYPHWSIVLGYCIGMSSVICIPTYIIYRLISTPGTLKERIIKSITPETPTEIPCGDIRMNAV", "experiment": "Synaptosomal uptake of [3H]5-HT in rat brain synaptosomes", "format": "biochemical", "settings": "IC50 Synaptosomes [3H]5-HT Uptake via SERT"}, "VMAT2": {"target": "T4, VMAT2 (Rattus norvegicus, UniProt Q01827)", "T4 construct": "Synaptic vesicles from rat cerebrum were isolated as described previously; from tissue; host or cells: rat cerebrum synaptic vesicles", "T4 sequence (Q01827 whole entry)": "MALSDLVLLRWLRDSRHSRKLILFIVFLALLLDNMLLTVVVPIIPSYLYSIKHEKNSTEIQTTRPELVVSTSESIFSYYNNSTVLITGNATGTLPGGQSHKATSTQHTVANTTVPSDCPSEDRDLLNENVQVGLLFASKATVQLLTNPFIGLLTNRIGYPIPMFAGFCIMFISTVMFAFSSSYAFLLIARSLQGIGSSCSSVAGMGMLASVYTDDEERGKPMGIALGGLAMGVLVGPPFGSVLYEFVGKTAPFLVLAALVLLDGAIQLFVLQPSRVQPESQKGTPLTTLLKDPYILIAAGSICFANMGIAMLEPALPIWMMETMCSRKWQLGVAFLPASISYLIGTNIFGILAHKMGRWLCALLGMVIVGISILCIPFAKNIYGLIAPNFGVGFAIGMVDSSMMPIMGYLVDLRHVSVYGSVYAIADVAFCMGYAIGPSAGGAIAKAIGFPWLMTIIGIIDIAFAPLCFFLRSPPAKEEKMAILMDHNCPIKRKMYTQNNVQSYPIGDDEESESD", "experiment": "Vesicular uptake of [3H]DA, [3H]NE and [3H]5-HT in rat brain synaptic vesicles", "format": "biochemical"}, "Sprague-Dawley rats": {"test_system": "Sprague-Dawley rats", "design": "method as in PMID 27265782", "settings": "i.p.; cited from earlier work"}, "CD-1 mice [1]": {"test_system": "CD-1 mice", "design": "method as in PMID 32356113, PMID 33770233", "settings": "i.p.; cited from earlier work"}, "CD-1 mice [2]": {"test_system": "CD-1 mice", "settings": "chronic exposure, 10 mg/kg/day for 30 days; cited from earlier work"}, "[3]": {"settings": "cited from earlier work"}, "[4]": {"experiment": "Pharmacokinetic studies: drug concentrations in mouse blood and brain tissue", "settings": "for half-life / Cmax: C57BL/6, mouse, ip"}, "[5]": {"test_system": "DA, 3-MT, DOPAC, 5-HT and 5-HIAA in dorsal striatum and nucleus accumbens", "experiment": "Neurotransmitter and metabolite concentrations in post-mortem mouse brain tissue", "format": "in vivo", "settings": "20 min after 3.75 mg/kg i.p."}, "vesicular DA uptake": {"test_system": "vesicular DA uptake", "design": "method as in PMID 16835371", "settings": "cited from earlier work"}, "[6]": {"settings": "mouse, single i.p. injection of 3.75 mg/kg methamphetamine"}}, "note": "Values joined by “and” are separate entries in the source; they are usually repeats but may differ in a detail not shown here. Equal entries are not always repeated."}
{"smiles": "CNC(C)Cc1cccs1", "note": "(stereo not shown) [methiopropamine, 1-(thiophen-2-yl)-2-methylaminopropane]", "values": [{"measurement": "peak effect (Emax), maximum run distance per 5 min interval", "setting": "C57BL/6J mice; […] i.p., C57BL/6 mice", "value": "2037 ± 127", "unit": "cm/5 min"}, {"measurement": "dose giving maximal locomotor effect (Emax)", "setting": "C57BL/6J mice; C57BL/6 mice", "value": 12.5, "unit": "mg/kg"}, {"measurement": "sudden deaths", "setting": "C57BL/6J mice; mouse, in vivo", "value": "did not observe any sudden deaths"}, {"measurement": "IC50", "setting": "DAT", "value": "0.74 ± 0.09", "unit": "µM"}, {"measurement": "potency, fold weaker compared with methamphetamine", "setting": "DAT; DA, NE and 5-HT transporters", "value": "approximately 5 ×"}, {"measurement": "IC50", "setting": "NET", "value": "0.47 ± 0.06", "unit": "µM"}, {"measurement": "IC50", "setting": "SERT", "value": "25.1 ± 2.91", "unit": "µM"}, {"measurement": "IC50", "setting": "VMAT2; IC50 Synaptic Vesicles [3H]5-HT Uptake via VMAT2, rat brain synaptic vesicles", "value": "48.9 ± 5.02", "unit": "µM"}, {"measurement": "IC50", "setting": "VMAT2; IC50 Synaptic Vesicles [3H]DA Uptake via VMAT2, rat brain synaptic vesicles", "value": 33.8, "unit": "µM"}, {"measurement": "IC50", "setting": "VMAT2; IC50 Synaptic Vesicles [3H]NE Uptake via VMAT2, rat brain synaptic vesicles", "value": "47 ± 8.01", "unit": "µM"}, {"measurement": "IC50", "setting": "VMAT2; IC50 vesicular uptake of DA, NE and 5-HT (span over the three substrates), rat brain synaptic vesicles", "value": "34 to 49 µM and > 25 µM and 10 to 50 µM"}, {"measurement": "dose with significant increase in locomotor activity", "setting": "Sprague-Dawley rats", "value": 5, "unit": "mg/kg"}, {"measurement": "dose with significant increase in locomotor activity", "setting": "CD-1 mice [1]", "value": 10, "unit": "mg/kg"}, {"measurement": "sudden deaths", "setting": "CD-1 mice [2]", "value": 70, "unit": "% deaths"}, {"measurement": "peripheral postmortem blood concentration", "setting": "[3]; fatal case of isolated methiopropamine use", "value": 38, "unit": "µg/mL"}, {"measurement": "blood concentration", "setting": "[3]; fatal intoxication case", "value": 245, "unit": "µM"}, {"measurement": "brain:blood ratios, comparison of the two drugs", "setting": "[4]; 5, 30 and 60 min after injection, […] methiopropamine vs 3.75 mg/kg methamphetamine, p > 0.05", "value": "no significant differences"}, {"measurement": "half-life", "setting": "[4]; blood and brain, […]", "value": "~30", "unit": "min"}, {"measurement": "half-life", "setting": "[4]; brain, […]", "value": "~35", "unit": "min"}, {"measurement": "half-life", "setting": "[4]; whole blood, […]", "value": "~31", "unit": "min"}]}
{"smiles": "CN[C@@H](C)Cc1ccccc1", "note": "[methamphetamine]", "values": [{"measurement": "Emax, maximum run distance per 5 min interval", "setting": "C57BL/6J mice; 3.75 mg/kg i.p., C57BL/6 mice", "value": "1312 ± 126", "unit": "cm"}, {"measurement": "maximum total locomotor activity (total run distance during 240 min session)", "setting": "C57BL/6J mice; 3.75 mg/kg i.p., C57BL/6 mice", "value": "24,401 ± 2043 cm"}, {"measurement": "dose giving maximal locomotor effect (Emax)", "setting": "C57BL/6J mice; C57BL/6 mice", "value": 3.75, "unit": "mg/kg"}, {"measurement": "IC50", "setting": "DAT", "value": "0.14 ± 0.01", "unit": "µM"}, {"measurement": "3-MT concentration", "setting": "[5]; Dorsal Striatum", "value": "3.6 ± 0.7", "unit": "nmol/g"}, {"measurement": "5-HT concentration", "setting": "[5]; Dorsal Striatum", "value": "2.0 ± 0.3", "unit": "nmol/g"}, {"measurement": "DA concentration", "setting": "[5]; Dorsal Striatum", "value": "107.4 ± 21.1", "unit": "nmol/g"}, {"measurement": "3-MT concentration", "setting": "[5]; Nucleus Accumbens", "value": "3.5 ± 1.0", "unit": "nmol/g"}, {"measurement": "5-HT concentration", "setting": "[5]; Nucleus Accumbens", "value": "6.1 ± 0.8", "unit": "nmol/g"}, {"measurement": "DA concentration", "setting": "[5]; Nucleus Accumbens", "value": "82.2 ± 10.5", "unit": "nmol/g"}, {"measurement": "IC50", "setting": "vesicular DA uptake", "value": 9.1, "unit": "µM"}, {"measurement": "half-life", "setting": "[4]; brain, 3.75 mg/kg", "value": "~45", "unit": "min"}, {"measurement": "Cmax", "setting": "[4]; brain, 3.75 mg/kg, Cmax in brain, mouse, single i.p. injection of 3.75 mg/kg methamphetamine", "value": "4110 ± 150", "unit": "ng/g"}, {"measurement": "half-life", "setting": "[4]; whole blood, 3.75 mg/kg", "value": "~36", "unit": "min"}, {"measurement": "Cmax", "setting": "[4]; whole blood, 3.75 mg/kg, Cmax in blood, mouse, single i.p. injection of 3.75 mg/kg methamphetamine", "value": "910 ± 80", "unit": "ng/mL"}, {"measurement": "time of Cmax in blood", "setting": "[4]; [6]", "value": 5, "unit": "min"}, {"measurement": "time of Cmax in brain", "setting": "[4]; [6]", "value": 20, "unit": "min"}]}
